Measured values published in patent US8580268B2, “CpG oligonucleotide analogs containing hydrophobic T analogs with enhanced immunostimulatory activity” (Coley Pharmaceutical GmbH, priority 2006, dated 2013).
“Also recorded” adds a separate entry of the source. Strand notation (5' to 3'): a small letter for the sugar, then the base; units joined by * are phosphorothioate-linked, units joined directly phosphodiester-linked; [ ] holds rarer units or linkages, { } end groups; capitals alone tell only the bases. [5IU] = 5-iodo-2'-deoxyuridine; [HEG] = Spacer 18, hexaethylene glycol phosphate; [TEG] = Spacer 9, triethylene glycol phosphate; [2doub] = Doubler2 branching unit (Chemgenes); [6NB] = 6-nitro-benzimidazol nucleoside; [5BrU] = 5-bromo-2'-deoxyuridine (BU); [5mC] = 5-methylcytosine; d = 2'-deoxy (DNA); m = 2'-O-methyl

target: T1, human TLR9 (Homo sapiens, UniProt Q9NR96); assay: TLR9 luciferase assay (NF-κB reporter) in hTLR9-LUC-293 cells; format: cell-based; conditions: 16 h, stated in words relative to the comparator ODN
T1 construct: expressed in transfected cells
T1 sequence (Q9NR96 26-1032): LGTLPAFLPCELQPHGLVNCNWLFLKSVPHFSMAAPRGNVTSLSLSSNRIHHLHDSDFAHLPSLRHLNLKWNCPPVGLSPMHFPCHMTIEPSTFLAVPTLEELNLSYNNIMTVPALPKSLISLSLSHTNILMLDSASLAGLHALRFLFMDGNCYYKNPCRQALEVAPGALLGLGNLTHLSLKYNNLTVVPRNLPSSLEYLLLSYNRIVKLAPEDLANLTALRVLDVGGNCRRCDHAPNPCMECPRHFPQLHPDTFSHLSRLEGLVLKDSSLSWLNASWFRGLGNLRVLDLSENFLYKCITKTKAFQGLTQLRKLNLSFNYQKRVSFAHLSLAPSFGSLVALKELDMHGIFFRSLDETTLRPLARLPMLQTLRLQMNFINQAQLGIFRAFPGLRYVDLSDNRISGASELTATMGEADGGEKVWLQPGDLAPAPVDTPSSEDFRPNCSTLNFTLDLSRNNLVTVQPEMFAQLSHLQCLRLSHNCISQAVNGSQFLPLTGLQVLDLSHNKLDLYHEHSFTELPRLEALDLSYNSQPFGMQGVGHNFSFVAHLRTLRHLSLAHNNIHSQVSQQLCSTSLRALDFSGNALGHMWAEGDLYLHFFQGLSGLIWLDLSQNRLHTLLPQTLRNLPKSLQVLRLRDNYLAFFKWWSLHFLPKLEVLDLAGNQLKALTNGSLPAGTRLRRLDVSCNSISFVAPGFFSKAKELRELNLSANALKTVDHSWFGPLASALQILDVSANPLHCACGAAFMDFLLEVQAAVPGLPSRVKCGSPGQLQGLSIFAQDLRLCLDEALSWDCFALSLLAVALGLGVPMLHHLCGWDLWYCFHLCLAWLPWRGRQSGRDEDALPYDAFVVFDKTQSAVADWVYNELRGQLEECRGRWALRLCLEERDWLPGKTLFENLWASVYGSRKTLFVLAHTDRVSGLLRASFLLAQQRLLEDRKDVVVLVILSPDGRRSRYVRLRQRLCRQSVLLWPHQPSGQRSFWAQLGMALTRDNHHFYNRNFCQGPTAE
Method: HEK293 cells were transfected by electroporation with vectors expressing the respective human TLR and a 6xNF-κB-luciferase reporter plasmid. Stable transfectants (3×10^4 cells/well) were incubated indicated amounts of ODN for 16 h at 37° C. in a humidified incubator. Each data point was done in triplicate. Cells were lysed and assayed for luciferase gene activity (using the BriteLite kit from Perkin-Elmer, Zaventem, Belgium). Stimulation indices were calculated in reference to reporter gene activity of medium without addition of ODN.

Substance | TLR9 stimulation (NF-κB luciferase activity, relative stimulation index)
(JU*C*G*T*T*C*G*L*)2doub-3mG (DNA NCGTTCGNNN; JU, 3'3'-branched doubler, chemistry not fully specified) [SEQ ID NO:97] | as active or more active than the unmodified SEQ ID NO:1
(JU*C*G*T*T*C*G*L*)2doub-teg (DNA d[5IU]*dC*dG*dT*dT*dC*dG*[HEG]*[2doub][TEG]; some compounds branched: two arms joined via doubler and TEG) [SEQ ID NO:102, 3′3′-branched] | as active or more active than the unmodified SEQ ID NO:1; also recorded: more active than SEQ ID NO:96 AND 97
(T*G*JU*C-G*T*T*L*)2doub-3mG (DNA TGNCGTTNNN; JU, 3'3'-branched doubler, chemistry not fully specified) [SEQ ID NO:96] | as active or more active than the unmodified SEQ ID NO:1
(T*G*JU*C-G*T*T*L*)2doub-teg (DNA TGNCGTTNNN; JU modification, 3'3'-branched doubler with TEG, chemistry not fully specified) [SEQ ID NO:101] | as active or more active than the unmodified SEQ ID NO:1; also recorded: more active than SEQ ID NO:96 AND 97
G*JU*C-G*JU*T-hex [SEQ ID NO:126] | greatly enhanced the activity
JU*C-G*JU*C*G*T*T*T*T*A*C*G*G*C*G*C*C*G*T*G*C*C*G (DNA d[5IU]*dCdG*d[5IU]*dC*dG*dT*dT*dT*dT*dA*dC*dG*dG*dC*dG*dC*dC*dG*dT*dG*dC*dC*dG) [SEQ ID NO:44] | increased stimulation of TLR9 above unmodified A and C class
T*C*G*JU*C-G*JU*T*T*T*A*C*G*G*C*G*C*C*G*T*G*C*C*G (DNA dT*dC*dG*d[5IU]*dCdG*d[5IU]*dT*dT*dT*dA*dC*dG*dG*dC*dG*dC*dC*dG*dT*dG*dC*dC*dG) [SEQ ID NO:45] | increased stimulation of TLR9 above unmodified A and C class
T*C*T*T*T*T*T*T*G*U*C-G*T*T*T*T*T*T*T*T*T*T (DNA dT*dC*dT*dT*dT*dT*dT*dT*dG*dU*dCdG*dT*dT*dT*dT*dT*dT*dT*dT*dT*dT) [SEQ ID NO:51, U-modified T class] | reduced stimulation of TLR9
T*C-G-A-C-G-JU-C-G-JU-G-G*G*G*G (DNA dT*dCdGdAdCdGd[5IU]dCdGd[5IU]dGdG*dG*dG*dG) [SEQ ID NO:36, JU-modified A class] | increased stimulation of TLR9 above unmodified A and C class
T*C-G-A-C-G-JU-C-G-T-G-G*G*G*G (DNA dT*dCdGdAdCdGd[5IU]dCdGdTdGdG*dG*dG*dG) [SEQ ID NO:35, JU-modified A class] | increased stimulation of TLR9 above unmodified A and C class
T*G*6NB*C-G*T*T*T*T*T*T*T*T*T*T*T*T*T*T*T (DNA TGNCGTTTTTTTTTTTTTTT; DNA at 1, 2, 4, 5, 6, 7, 8, 9, 10, 11, 12, 13, 14, 15, 16, 17, 18, 19, 20, [6NB] at 3, linkages s3 o1 s15 (s phosphorothioate, o phosphodiester), other sugars not given here; further chemistry not fully specified) [SEQ ID NO:178, B-class with 6-nitro-benzimidazol (6NB)] | comparable with the unmodified parent sequence
T*G*BU*C-G*T*T*T*T*T*T*T*T*T*T*T*T*T*T*T (DNA dT*dG*d[5BrU]*dCdG*dT*dT*dT*dT*dT*dT*dT*dT*dT*dT*dT*dT*dT*dT*dT) [SEQ ID NO:10] | greater stimulation of TLR9 activity over control
T*G*BVU*C-G*T*T*T*T*T*T*T*T*T*T*T*T*T*T*T (DNA TGNCGTTTTTTTTTTTTTTT; listed as DNA, chemistry not fully specified) [SEQ ID NO:153, B-class with 5-(2-bromo-vinyl)-uridine (BVU)] | more active in the assay than the parent sequence
T*G*CU*C-G*T*T*T*T*T*T*T*T*T*T*T*T*T*T*T (DNA TGNCGTTTTTTTTTTTTTTT; CU modification, chemistry not fully specified) [SEQ ID NO:41] | greater stimulation of TLR9 activity over control
T*G*EU*C-G*EU*T*T*T*T*T*T*T*T*T*T*T*T*T*T (DNA TGNCGNTTTTTTTTTTTTTT; EU modifications, chemistry not fully specified) [SEQ ID NO:30] | significant increase in TLR9 activation
T*G*EU*C-G*T*T*T*T*T*T*T*T*T*T*T*T*T*T*T (DNA TGNCGTTTTTTTTTTTTTTT; EU modification, chemistry not fully specified) [SEQ ID NO:42] | greater stimulation of TLR9 activity over control; also recorded: significant increase in TLR9 activation
T*G*JU*C-E*T*T*T*T*T*T*T*T*T*T*T*T*T*T*T (DNA TGNCNTTTTTTTTTTTTTTT; JU, 7-deaza-dG, chemistry not fully specified) [SEQ ID NO:138, B-class with 7-deaza-dG (E)] | more active in the assay than the parent ODN
T*G*JU*C-I*T*T*T*T*T*T*T*T*T*T*T*T*T*T*T (DNA TGUCNTTTTTTTTTTTTTTT; DNA at 3, [5IU] at 3, linkages s3 o1 s15 (s phosphorothioate, o phosphodiester), other sugars and the base at N not given here; position 5 is inosine) [SEQ ID NO:139, B-class with inosine (I)] | more active in the assay than the parent ODN
T*G*JU*C-mG*T*T*T*T*T*T*T*T*T*T*T*T*T*T*T (DNA dT*dG*d[5IU]*dCmG*dT*dT*dT*dT*dT*dT*dT*dT*dT*dT*dT*dT*dT*dT*dT) [SEQ ID NO:112, 2′-O-methyl-modified B-class] | slightly more active
T*G*JU*Z-G*T*T*T*T*T*T*T*T*T*T*T*T*T*T*T (DNA dT*dG*d[5IU]*d[5mC]dG*dT*dT*dT*dT*dT*dT*dT*dT*dT*dT*dT*dT*dT*dT*dT) [SEQ ID NO:140, B-class with 5-methyl-dC (Z)] | more active in the assay than the parent ODN
T*G*PU*C-G*T*T*T*T*T*T*T*T*T*T*T*T*T*T*T (DNA TGNCGTTTTTTTTTTTTTTT; 5-propynyl-dU, chemistry not fully specified) [SEQ ID NO:116, B-class with 5-proynyl-dU (PU)] | activity comparable to that of the parent sequence; also recorded: slightly improved over the parent sequence
T*G*T*C-G*BVU*T*T*T*T*T*T*T*T*T*T*T*T*T*T (DNA TGTCGNTTTTTTTTTTTTTT; listed as DNA, chemistry not fully specified) [SEQ ID NO:154, B-class with 5-(2-bromo-vinyl)-uridine (BVU)] | more active in the assay than the parent sequence
T*G*T*C-G*PU*T*T*T*T*T*T*T*T*T*T*T*T*T*T (DNA TGTCGNTTTTTTTTTTTTTT; 5-propynyl-dU, chemistry not fully specified) [SEQ ID NO:117, B-class with 5-proynyl-dU (PU)] | activity comparable to that of the parent sequence
T*G*U*C-G*T*T*T*T*T*T*T*T*T*T*T*T*T*T*T (DNA dT*dG*dU*dCdG*dT*dT*dT*dT*dT*dT*dT*dT*dT*dT*dT*dT*dT*dT*dT) [SEQ ID NO:16] | dramatically decreased activity
T*mG*JU*C-mG*T*T*T*T*T*T*T*T*T*T*T*T*T*T*T (DNA dT*mG*d[5IU]*dCmG*dT*dT*dT*dT*dT*dT*dT*dT*dT*dT*dT*dT*dT*dT*dT) [SEQ ID NO:113, 2′-O-methyl-modified B-class] | slightly more active
